{"source": "patent US20150074835A1", "about": "“TRANSGENIC MOUSE EXPRESSING HUMAN LIPOPROTEIN (A) WITH DISABLED VITAMIN C GENE AND ITS USE AS A DISEASE TREATMENT MODEL” (priority 2013, published 2015)", "test_system": "Lpa+Gulo (−/−) mouse", "experiment": "Lipoprotein-cholesterol, apo(a) particle and apoB-100 particle modulation (SPIFE / IFE of sera) under ascorbic acid supplementation", "type": "in vivo", "details": "30 mg/L, 60 mg/L or 150 mg/L ascorbic acid in drinking water in addition to 500 ppm vitamin C in food (full supplementation); FIG. 6-8", "experimental": "SPIFE Cholesterol Profiling (FIG. 2): The presence of complete Lp(a) lipoprotein particles in the Lp(a)+GULO(−/−) transgenic mouse serum was confirmed using the electrophoresis method with Helena (Beaumont, Tex.) SPIFE Cholesterol Profiling and Immunofixation electrophoresis (IFE). Immunofixation Electrophoresis (IFE) using the mouse sera was conducted on individual apo(a) (FIG. 3) containing particles and human apoB-100 containing particles (FIG. 4) as well, using human specific apo(a) and apoB-100 antibodies at Health Diagnostic Laboratory, Inc. (Richmond, Va.). The bands represent apo(a) and apoB-100 protein respectively in transgenic mouse and visualization of the same in serum derived from female and male mouse. Lipoprotein-cholesterol, Apo(a) particle, and ApoB-100 particle Modulation (FIG. 6, FIG. 7, and FIG. 8): The analysis was conducted on mouse sera from the Lpa+Gulo (−/−)mouse supplemented with either 30 mg/L, 60 mg/L or 150 mg/L of ascorbic acid provided in drinking water in addition to 500 ppm vitamin C provided in food (full supplementation). […] Sample order in FIGS. 6-8 correspond to the following key, with 30 vc referring to 30 mg/L Vitamin C group, 60 vc referring to 60 mg/L Vitamin C group, and sc referring to fully supplemented (150 mg/L Vitamin C+500 ppm Vitamin C in food) control group. The first three wells of each row were not used.", "data": [{"compound": "O=C1O[C@H]([C@@H](O)CO)C(O)=C1O", "note": "[ascorbate, ascorbic acid]", "values": [{"measurement": "modulation of the whole spectrum of lipoprotein cholesterols and/or lipoprotein particles in mouse sera", "result": "could be modulated"}]}]}
